# Reference: patent US20260200903A1, “PHARMACEUTICAL COMPOSITION FOR AMELIORATING MALIGNANT DISEASES” (KINKI UNIVERSITY, priority 2020, published 2026)
# Legend:
# [1] = test system: ATN-1 cells (adult T cell leukemia cell line); test: Cell death inducing effect on ATN-1 cells, trypan blue staining; type: cell-based; details: ATN-1 (ATL), cell viability
# Experimental: (§1) ATN-1 cells (adult T cell leukemia cell line) were cultured under 5% CO2 at 37° C. The culture medium used RPMI-1640 medium with 100 μg/mL penicillin, 100 U/mL streptomycin and fetal bovine serum. ATN-1 cells were seeded into 96-well plates and incubated with each concentration of the compounds was added, and cell viability was determined by the trypan blue staining.
# (§2) For controls, only 0.5% DMSO (diluted in PBS) used to dissolve the compounds was added. For each concentration, the codes “5, 6, 7, 8, 9, 10, 11, 12” and arrows are shown from left to right. The sign “5” is the M9 (formula (5)) administration group, the sign “6” is the M11 (formula (6)) administration group, the sign “7” is the M12 (formula (7)) administration group, the sign “8” is the M14 (formula (8)) administration group, the sign “9” is the M15 (formula (9)) administration group, the sign “10” is the M16 (formula (10)) administration group, the sign “11” is the M18 (formula (11)) administration group, the sign “12” is the M19 (formula (12)) administration group, respectively. The IC50 values for each compound is also listed in the upper right corner of the figure.
# [2] = test system: immunoglobulin free λ light chain; test: Immunoglobulin free λ light chain secretion in KMS-28BM cells, ELISA; type: cell-based, human; details: KMS-28BM culture supernatant after 10 days, control 48 μg/L
# Experimental: The inhibitory effect of each compound on immunoglobulin free λ light chain secretion was examined by enzyme-linked immunosorbent assay (ELISA) using KMS-28BM cells.
# (§3) As a control, compounds untreated KMS-28BM cells were seeded in 75 cm^2 flasks and incubated for 10 days at 37° C. and 5% CO2. KMS-28BM cells were seeded into 75 cm^2 flasks and pre-cultured for 4 h. After incubation, KMS-28BM cells were treated with […], 0.05 μM M9, 0.1 μM yk-7, 0.1 μM yk-8-3, 50 μM yk-8-1, 0.5 μM M11, […], 0.005 μM M14, 0.005 μM M15, 0.005 μM M16, 0.5 μM M18, and 0.5 μM M19 at final concentrations, and incubated for 10 days at 37° C. and 5% CO2. After 10 days of incubation, the culture supernatant was collected and immunoglobulin free λ light chain secretion was measured by ELISA. This measurement was performed using a human anti-λchain antibody ELISA kit (Funakoshi).
# IgG [3] = test: IgG secretion in KMS-28BM cells, ELISA; type: cell-based, human; details: KMS-28BM culture supernatant after 10 days; compounds at 0.005-50 μM; control 1326 ng/mL
# Experimental: The inhibitory effect of each compound on IgG secretion was examined by enzyme-linked immunosorbent assay (ELISA) using KMS-28BM cells.
# as §3, with “IgG” for “immunoglobulin free λ light chain”, “anti-IgG” for “anti-λchain”
# [4] = test system: immunoglobulin free λ light chain; test: Immunoglobulin free λ light chain secretion in L363 cells, ELISA; type: cell-based, human; details: L363 culture supernatant after 10 days, control 145 μg/L
# Experimental: The inhibitory effect of each compound on immunoglobulin free λ light chain secretion was examined by enzyme-linked immunosorbent assay (ELISA) using L363 cells.
# (§4) As a control, compounds untreated L363 cells were seeded in 75 cm^2 flasks and incubated for 10 days at 37° C. and 5% CO2. L363 cells were seeded into 75 cm^2 flasks and pre-cultured for 4 h. After incubation, L363 cells were treated with 0.1 μM M7, 0.05 μM M9, 0.1 μM yk-7, 0.1 μM yk-8-3, 50 μM yk-8-1, 0.1 μM M11, 0.01 μM M12, 0.005 μM M14, 0.005 μM M15, 0.005 μM M16, 1 μM M18, and 1 μM M19 at final concentrations, and incubated for 10 days at 37° C. and 5% CO2. After 10 days of incubation, the culture supernatant was collected and immunoglobulin free λ light chain secretion was measured by ELISA. This measurement was performed using a human anti-λ chain antibody ELISA kit (Funakoshi).
# [5] = test system: HUT-78 cells (peripheral T lymphoma cell line); test: Cell death inducing effect on HUT-78 cells, trypan blue staining; type: cell-based; details: HUT-78 (peripheral T-cell lymphoma), cell viability
# Experimental: HUT-78 cells (peripheral T lymphoma cell line) were cultured under 5% CO2 at 37° C.
# The culture medium used RPMI-1640 medium with 100 μg/mL penicillin, 100 U/mL streptomycin and fetal bovine serum. HUT-78 cells were seeded into 96-well plates and incubated with each concentration of the compounds was added, and cell viability was determined by the trypan blue staining.
# as §2
# IgG [6] = test: IgG secretion in L363 cells, ELISA; type: cell-based, human; details: L363 culture supernatant after 10 days; compounds at 0.005-50 μM; control 2098 ng/mL
# Experimental: The inhibitory effect of each compound on IgG secretion was examined by enzyme-linked immunosorbent assay (ELISA) using L363 cells.
# as §4, with “IgG” for “immunoglobulin free λ light chain”, “anti-IgG” for “anti-λ chain”
# [7] = test system: MEC-1 cells (chronic lymphocytic leukemia cell line); test: Cell death inducing effect on MEC-1 cells, trypan blue staining; type: cell-based; details: MEC-1 (CLL), cell viability
# Experimental: as §1, with “MEC-1” for “ATN-1”, “(chronic lymphocytic” for “(adult T cell”
# as §2
Compound,IC50 ([1]; Homo sapiens) [µM],"IC50 ([5]; Homo sapiens, HuT78) [µM]","IC50 ([7]; Homo sapiens, MEC1) [µM]",other results
"CCCC(=O)OC[C@H]1O[C@@H](c2c(OC(=O)CCC)cc3oc4cc(OC(=O)CCC)c(OC(=O)CCC)cc4c(=O)c3c2OC(=O)CCC)[C@H](OC(=O)CCC)[C@@H](OC(=O)CCC)[C@@H]1OC(=O)CCC [Compound M11, 1,3,2′,3′,4′,6,6′,7-octa-O-butyrylmangiferin]",,,,IC50 [1]: 1.85 µM; λ chain secretion ([2]; compounds at 0.005-50 μM): 1.1 µg/L; IgG secretion (IgG [3]): 61 ng/mL; λ chain secretion ([4]; compounds at 0.005-50 μM): 11 µg/L; IC50 [5]: 0.905 µM; IgG secretion (IgG [6]): 44 ng/mL; IC50 [7]: 0.575 µM
"C=CCOc1cc(O)cc2oc3cc(O)c(O)cc3c(=O)c12 [Compound M19, 1-allyloxy-3,6,7-trihydroxy-9H-xanthen-9-one]",4.52,6.74,6.89,
"O=c1c2cc(O)c(O)cc2oc2cc(O)cc(OCCO)c12 [Compound M18, 3,6,7-trihydroxy-1-(2-hydroxyethoxy)-9H-xanthen-9-one]",2.89,4.54,3.12,
"CCC(=O)OC[C@H]1O[C@@H](c2c(OC(=O)CC)cc3oc4cc(OC(=O)CC)c(OC(=O)CC)cc4c(=O)c3c2OC(=O)CC)[C@H](OC(=O)CC)[C@@H](OC(=O)CC)[C@@H]1OC(=O)CC [Compound M7, 1,3,2′,3′,4′,6,6′,7-octa-O-propionylmangiferin]",,,,"λ chain secretion ([2]; M7 group, unit printed g/L): 2.1e+06 µg/L; λ chain secretion ([4]; M7 group, unit printed g/L): 2.3e+07 µg/L"
"CCCCO[C@@H]1[C@@H](OCCCC)[C@H](c2c(O)cc3oc4cc(O)c(O)cc4c(=O)c3c2O)O[C@H](COC(=O)CCC)[C@H]1OC(=O)CCC [Compound M16, 2′,3′-di-O-butyl-4′,6′-di-O-butyrylmangiferin]",0.007,0.009,0.007,
"CCC(=O)OC[C@H]1O[C@@H](c2c(O)cc3oc4cc(O)c(O)cc4c(=O)c3c2O)[C@H](OC(=O)CC)[C@@H](OC(=O)CC)[C@@H]1OC(=O)CC [Compound M9, 2′,3′,4′,6′-tetra-O-propionylmangiferin]",0.589,0.925,0.454,
"CCCC(=O)OC[C@H]1O[C@@H](c2c(O)cc3oc4cc(O)c(O)cc4c(=O)c3c2O)[C@H](OC(=O)CCC)[C@@H](OC(=O)CCC)[C@@H]1OC(=O)CCC [Compound M14, 2′,3′,4′,6′-tetra-O-butyrylmangiferin]",0.008,0.008,0.008,
"CC(C)(C)C(=O)OC[C@H]1O[C@@H](c2c(O)cc3oc4cc(O)c(O)cc4c(=O)c3c2O)[C@H](OC(=O)C(C)(C)C)[C@@H](OC(=O)C(C)(C)C)[C@@H]1OC(=O)C(C)(C)C [Compound M15, 2′,3′,4′,6′-tetra-O-pivaloylmangiferin]",0.011,0.022,0.009,
"CCCC(=O)OC[C@H]1O[C@@H](c2c(O)cc3oc4cc(O)c(O)cc4c(=O)c3c2OC(=O)CCC)[C@H](OC(=O)CCC)[C@@H](OC(=O)CCC)[C@@H]1OC(=O)CCC [Compound M12, 1,2′,3′,4′,6-penta-O-butyrylmangiferin]",0.015,0.021,0.012,
"CCCCC(=O)OC[C@H]1O[C@@H](c2c(OC(=O)CCCC)cc3oc4cc(OC(=O)CCCC)c(OC(=O)CCCC)cc4c(=O)c3c2OC(=O)CCCC)[C@H](OC(=O)CCCC)[C@@H](OC(=O)CCCC)[C@@H]1OC(=O)CCCC [yk-8-1, 1,3,2′,3′,4′,6,6′,7-octa-O-valerylmangiferin]",,,,λ chain secretion ([2]; compounds at 0.005-50 μM): 35 µg/L; IgG secretion (IgG [3]): 1117 ng/mL; λ chain secretion ([4]; compounds at 0.005-50 μM): 119 µg/L; IgG secretion (IgG [6]): 1474 ng/mL
